{
  "source": "ChEMBL document CHEMBL1143353",
  "about": "“Pyrazolo[1,5-a]-1,3,5-triazine as a purine bioisostere: access to potent cyclin-dependent kinase inhibitor (R)-roscovitine analogue” (J Med Chem, 2009)",
  "key": {"[1]": {"target": "Cyclin-dependent kinase 5/CDK5 activator 1 (Homo sapiens, UniProt Q00535)", "sequence (Q00535 whole entry)": "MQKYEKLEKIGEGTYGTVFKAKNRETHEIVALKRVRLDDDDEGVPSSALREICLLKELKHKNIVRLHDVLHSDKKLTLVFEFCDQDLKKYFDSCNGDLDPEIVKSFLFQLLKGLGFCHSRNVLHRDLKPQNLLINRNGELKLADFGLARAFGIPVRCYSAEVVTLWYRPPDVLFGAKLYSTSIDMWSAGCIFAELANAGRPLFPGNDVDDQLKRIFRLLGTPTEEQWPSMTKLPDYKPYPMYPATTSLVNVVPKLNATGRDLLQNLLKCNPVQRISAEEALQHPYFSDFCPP", "sequence (Q15078 whole entry, further chain)": "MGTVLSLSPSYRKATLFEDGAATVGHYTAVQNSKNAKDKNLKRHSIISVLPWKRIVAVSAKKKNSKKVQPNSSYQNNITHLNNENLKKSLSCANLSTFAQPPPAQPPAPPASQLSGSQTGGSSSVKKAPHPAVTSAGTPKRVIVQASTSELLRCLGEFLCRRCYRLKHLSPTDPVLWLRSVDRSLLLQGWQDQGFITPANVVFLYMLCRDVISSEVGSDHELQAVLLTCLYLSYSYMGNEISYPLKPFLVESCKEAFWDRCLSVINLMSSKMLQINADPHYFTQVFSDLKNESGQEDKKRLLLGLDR", "description": "Inhibition of human recombinant CDK5/p25 expressed in Escherichia coli"}, "[2]": {"target": "Cyclin-dependent kinase 7/ cyclin H (Homo sapiens, UniProt P50613)", "sequence (P51946 whole entry)": "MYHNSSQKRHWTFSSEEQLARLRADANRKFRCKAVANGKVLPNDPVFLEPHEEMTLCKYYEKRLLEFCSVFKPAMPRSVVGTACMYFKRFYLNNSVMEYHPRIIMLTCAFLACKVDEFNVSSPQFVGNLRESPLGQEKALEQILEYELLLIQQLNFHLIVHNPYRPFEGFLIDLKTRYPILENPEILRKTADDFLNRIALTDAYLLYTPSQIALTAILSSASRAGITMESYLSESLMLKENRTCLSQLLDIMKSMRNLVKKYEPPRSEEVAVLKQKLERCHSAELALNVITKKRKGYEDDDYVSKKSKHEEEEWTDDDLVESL", "sequence (P50613 whole entry)": "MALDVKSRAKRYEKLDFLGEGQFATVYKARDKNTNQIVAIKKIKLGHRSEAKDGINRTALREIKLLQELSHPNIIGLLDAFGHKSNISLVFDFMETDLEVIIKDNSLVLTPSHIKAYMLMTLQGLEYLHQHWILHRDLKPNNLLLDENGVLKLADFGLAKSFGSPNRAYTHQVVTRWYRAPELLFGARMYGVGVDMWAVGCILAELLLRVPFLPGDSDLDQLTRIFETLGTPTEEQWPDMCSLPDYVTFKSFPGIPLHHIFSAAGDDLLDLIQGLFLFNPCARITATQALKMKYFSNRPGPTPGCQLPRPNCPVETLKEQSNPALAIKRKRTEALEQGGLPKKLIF", "test": "Inhibition of human recombinant CDK7/cyclin H expressed in baculovirus-infected insect cells"}, "[3]": {"target": "CDK9/cyclin T1 (Homo sapiens, UniProt P50750)", "sequence (O60563 whole entry)": "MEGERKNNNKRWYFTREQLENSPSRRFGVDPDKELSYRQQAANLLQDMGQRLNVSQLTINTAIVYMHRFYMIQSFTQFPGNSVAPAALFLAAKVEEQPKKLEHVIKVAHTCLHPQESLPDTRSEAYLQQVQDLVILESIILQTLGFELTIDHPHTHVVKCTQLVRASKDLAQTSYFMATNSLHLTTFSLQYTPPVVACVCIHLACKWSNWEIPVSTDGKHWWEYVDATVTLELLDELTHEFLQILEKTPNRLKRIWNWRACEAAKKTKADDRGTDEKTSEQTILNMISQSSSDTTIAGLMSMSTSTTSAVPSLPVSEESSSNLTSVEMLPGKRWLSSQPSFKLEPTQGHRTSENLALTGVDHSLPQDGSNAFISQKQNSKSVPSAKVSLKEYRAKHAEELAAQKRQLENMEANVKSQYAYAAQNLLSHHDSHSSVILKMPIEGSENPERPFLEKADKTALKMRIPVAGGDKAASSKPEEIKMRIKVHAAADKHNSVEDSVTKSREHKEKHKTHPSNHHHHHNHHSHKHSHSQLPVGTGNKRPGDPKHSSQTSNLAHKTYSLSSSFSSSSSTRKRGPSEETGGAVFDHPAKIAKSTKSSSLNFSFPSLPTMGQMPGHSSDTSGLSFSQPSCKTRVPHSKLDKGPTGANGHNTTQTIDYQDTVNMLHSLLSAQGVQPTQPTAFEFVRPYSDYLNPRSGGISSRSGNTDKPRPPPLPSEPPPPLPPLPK", "sequence (P50750 whole entry)": "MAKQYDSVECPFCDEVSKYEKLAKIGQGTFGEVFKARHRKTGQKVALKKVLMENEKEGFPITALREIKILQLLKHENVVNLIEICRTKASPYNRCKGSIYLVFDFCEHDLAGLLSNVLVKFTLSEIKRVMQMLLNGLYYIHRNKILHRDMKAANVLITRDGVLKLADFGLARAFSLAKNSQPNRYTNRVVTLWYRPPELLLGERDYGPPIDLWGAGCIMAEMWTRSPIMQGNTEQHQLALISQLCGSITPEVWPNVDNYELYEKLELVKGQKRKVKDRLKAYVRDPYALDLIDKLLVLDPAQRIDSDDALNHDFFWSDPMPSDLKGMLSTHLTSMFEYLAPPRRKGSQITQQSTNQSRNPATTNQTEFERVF", "test": "Inhibition of human recombinant CDK9/cyclin T expressed in baculovirus-infected insect cells"}, "[4]": {"tested_on": "SK-MEL-28", "test": "Antiproliferative activity against human SK-MEL-28 cells after 72 hrs by ViaLight assay", "assay_type": "functional", "settings": "SK-MEL-28, 72 h"}, "[5]": {"tested_on": "UACC-257", "test": "Antiproliferative activity against human UACC257 cells after 72 hrs by ViaLight assay", "assay_type": "functional", "settings": "UACC-257, 72 h"}, "[6]": {"tested_on": "OVCAR-8", "test": "Antiproliferative activity against human OVCAR8 cells after 72 hrs by ViaLight assay", "assay_type": "functional", "settings": "OVCAR-8, 72 h"}, "[7]": {"tested_on": "BT-549", "test": "Antiproliferative activity against human BT549 cells after 72 hrs by ViaLight assay", "assay_type": "functional", "settings": "BT-549, 72 h"}, "[8]": {"tested_on": "HeLa", "test": "Antiproliferative activity against human HeLa cells after 72 hrs by ViaLight assay", "assay_type": "functional, cell-based"}, "[9]": {"tested_on": "HEK-293T", "test": "Antiproliferative activity against human 293T cells after 72 hrs by ViaLight assay", "assay_type": "functional, cell-based"}, "[10]": {"tested_on": "Raji", "test": "Antiproliferative activity against human Raji cells after 72 hrs by ViaLight assay", "assay_type": "functional, cell-based"}, "[11]": {"tested_on": "U-937", "test": "Antiproliferative activity against human U937 cells after 72 hrs by ViaLight assay", "assay_type": "functional, cell-based"}, "[12]": {"settings": "read-out: LC50 (the source's name)"}, "[13]": {"settings": "read-out: pLC50 (the source's name) (converted)"}},
  "data": [
    {"smiles": "CC[C@H](CO)Nc1nc(NCc2ccccc2)n2ncc(C(C)C)c2n1", "values": [
      {"measurement": "IC50", "setting": "[1]", "result": 0.07, "unit": "µM"},
      {"measurement": "IC50", "setting": "[2]", "result": 0.5, "unit": "µM"},
      {"measurement": "IC50", "setting": "[3]", "result": 0.043, "unit": "µM"},
      {"measurement": "GI50", "setting": "[4]; read-out: GI50", "result": 1.16, "unit": "µM"},
      {"measurement": "CC50", "setting": "[4]; [12]", "result": 16.9, "unit": "µM"},
      {"measurement": "TGI", "setting": "[4]; read-out: TGI", "result": 3.82, "unit": "µM"},
      {"measurement": "GI50", "setting": "[4]; read-out: pGI50 (converted)", "result": 1.15, "unit": "µM"},
      {"measurement": "CC50", "setting": "[4]; [13]", "result": 17, "unit": "µM"},
      {"measurement": "TGI", "setting": "[4]; read-out: pTGI (converted)", "result": 3.8, "unit": "µM"},
      {"measurement": "GI50", "setting": "[5]; read-out: GI50", "result": 3.56, "unit": "µM"},
      {"measurement": "CC50", "setting": "[5]; [12]", "result": "> 100", "unit": "µM"},
      {"measurement": "TGI", "setting": "[5]; read-out: TGI", "result": 15, "unit": "µM"},
      {"measurement": "GI50", "setting": "[5]; read-out: pGI50 (converted)", "result": 3.24, "unit": "µM"},
      {"measurement": "CC50", "setting": "[5]; [13]", "result": 100, "unit": "µM"},
      {"measurement": "TGI", "setting": "[5]; read-out: pTGI (converted)", "result": 24, "unit": "µM"},
      {"measurement": "GI50", "setting": "[6]; read-out: GI50", "result": 2.15, "unit": "µM"},
      {"measurement": "CC50", "setting": "[6]; [12]", "result": "> 100", "unit": "µM"},
      {"measurement": "TGI", "setting": "[6]; read-out: TGI", "result": 54.8, "unit": "µM"},
      {"measurement": "GI50", "setting": "[6]; read-out: pGI50 (converted)", "result": 2.45, "unit": "µM"},
      {"measurement": "CC50", "setting": "[6]; [13]", "result": 100, "unit": "µM"},
      {"measurement": "TGI", "setting": "[6]; read-out: pTGI (converted)", "result": 55, "unit": "µM"},
      {"measurement": "GI50", "setting": "[7]; read-out: GI50", "result": 1.56, "unit": "µM"},
      {"measurement": "CC50", "setting": "[7]; [12]", "result": 36.1, "unit": "µM"},
      {"measurement": "TGI", "setting": "[7]; read-out: TGI", "result": 5.29, "unit": "µM"},
      {"measurement": "GI50", "setting": "[7]; read-out: pGI50 (converted)", "result": 2.45, "unit": "µM"},
      {"measurement": "CC50", "setting": "[7]; [13]", "result": 36.3, "unit": "µM"},
      {"measurement": "TGI", "setting": "[7]; read-out: pTGI", "result": 5.25, "unit": "µM"},
      {"measurement": "Activity", "setting": "[8]", "result": "Dose-dependent effect"},
      {"measurement": "Activity", "setting": "[9]", "result": "Dose-dependent effect"},
      {"measurement": "Activity", "setting": "[10]", "result": "Dose-dependent effect"},
      {"measurement": "Activity", "setting": "[11]", "result": "Dose-dependent effect"}
    ]}
  ]
}
